“Also recorded” adds a separate entry of the source. Marks after values point to notes of the source that are not given here.
Tests used:
[1] = tested on: wild-type (AB) zebrafish (Danio rerio); experiment: Maximum tolerated concentration (MTC) determination in larval zebrafish; type: in vivo; settings: after 24 h exposure; 5 dpf larvae
Protocol: (§1) Larval zebrafish were produced in the University of Toledo zebrafish core facility and housed in an incubator maintained at 28 °C on a 14:10 h cycle. Fish were acclimated to the testing room conditions the evening prior to testing. All testing took place during the 14 h light cycle after the lights had been on for at least 2 h.
Determination of maximum tolerated concentration (adapted from Berghmans)[52] was completed by placing 5 days post fertilization (dpf) wild-type zebrafish larvae in a 24 well plate at 6 fish per well, and one compound concentration per well. […] Death was determined by the absence of heartbeat. Additional endpoints were used to assess toxicity at non-lethal concentrations such as startle capacity (poke stimulus), abnormalities in swimming behavior (loss of dorsoventral balance), and gross morphological deformities (bent body). […] The MTC determination was used to select three doses of each compound (low, medium, high dose) to be used in behavioral assays.

[2] = tested on: wild-type (AB) zebrafish (Danio rerio); type: in vivo; settings: compound at 10 µM relative to controls; mean ± s.e.m., N = 12
[3] = target: T1, human M1 muscarinic receptors (Homo sapiens, UniProt P11229); experiment: [3H]-arachidonic acid release in CHO cells expressing M1 receptors, with and without ACh (single modulator concentration, four-parameter curves); type: cell-based; design: expressed in transfected cells; host or cells: CHO cells stably transfected with hM1, obtained from Mark Brann's laboratory (NIH); settings: for 0.1 µM ACh: response with modulator present divided by response to ACh alone / 100 µM ACh: response with modulator present divided by response to ACh alone / No ACh: agonist effect of the allosteric ligand by itself, fraction of the maximal response that could be elicited by ACh: modulator 10 µM, CHO-hM1, mean ± s.e.m.; for No ACh: agonist effect of the allosteric ligand by itself, fraction of the maximal response that could be elicited by ACh: at least 4 determinations; for Effect on M1 receptor activity and ACh response, in words: modulators at 10 µM (amiodarone 30 µM)
T1 sequence (P11229 1-460): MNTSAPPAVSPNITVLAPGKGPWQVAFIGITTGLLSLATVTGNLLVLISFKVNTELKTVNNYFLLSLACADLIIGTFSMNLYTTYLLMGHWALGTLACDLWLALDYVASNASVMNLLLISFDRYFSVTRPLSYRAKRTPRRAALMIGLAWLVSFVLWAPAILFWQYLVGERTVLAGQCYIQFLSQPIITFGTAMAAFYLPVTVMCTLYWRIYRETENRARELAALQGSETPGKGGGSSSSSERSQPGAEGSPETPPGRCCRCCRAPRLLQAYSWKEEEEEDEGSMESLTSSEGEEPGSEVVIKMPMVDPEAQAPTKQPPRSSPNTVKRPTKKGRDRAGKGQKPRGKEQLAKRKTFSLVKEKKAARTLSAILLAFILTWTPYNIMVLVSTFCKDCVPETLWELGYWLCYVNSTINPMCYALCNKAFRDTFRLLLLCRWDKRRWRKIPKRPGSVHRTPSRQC
Protocol: CHO cells expressing human M1 muscarinic receptors were cultured at 37 °C in a 5% CO2 atmosphere in F12 medium supplemented with 5% fetal bovine serum, 100 units/ml penicillin, and 100 µg/ml streptomycin. These cells were obtained from Mark Brann’s laboratory when they were at NIH and have been in use by us and others for many years.
Measurement of [^3H]AA release was performed as described in Stahl and Ellis[24]. Stably transfected CHO-hM1 cells were seeded on 24-well plates (Greiner Bio-One GmbH, Frickenhausen, Germany) at a density of 5.0 × 10^4 cells/well in 0.5 ml of F-12 medium. Cells were incubated until they attached (approximately 3 h), followed by the addition of [^3H]AA to a final concentration of 0.05 μCi of [^3H]AA per well. The cells were then grown for 16 to 20 h before the assay was performed. [^3H]AA release was measured in Eagle’s basal medium with 20 mM HEPES and 2 mg/ml fatty acid-free bovine serum albumin (EM-BSA). Cells were rinsed twice with EM-BSA, followed by the addition of EM-BSA media containing experimental agents and incubated for 1 h at 37 °C. The assay was terminated by aspiration of the media, and the amount of [^3H]AA released was determined by liquid scintillation counting (Beckman-Coulter LS6500).
Where indicated (Fig. 2), cells were pretreated with POB to reduce the number of available receptors per cell. Stock POB was made up at 10 mM in ethanol and stored at −20C. Each well was pretreated with 0.5 ml of the appropriate concentration in PBS with 1 mM CaCl2 and 1 mM MgCl2 (PBS+ +) for 30 min at 37 °C, followed by 5 washes with PBS+ + . After pretreatment, the normal protocol follows as above.
Tabulated [^3H]AA release data are represented as a fraction of maximal release elicited by ACh or as the fraction of release elicited by the relevant concentration of ACh alone, as indicated. Dose-response curves were normalized to the maximal response of ACh without allosteric ligand. Where indicated, response curves were analyzed using the empirical four-parameter equation: Y=Top+Bottom-Top/1+X/C50^n where X is the concentration of the ligand used, Y is the amount of response, C50 is the concentration of the ligand that produces 50% of the maximal effect, Top and Bottom are the top and bottom plateaus of the curve, and n is related to the Hill slope for the curve. Where indicated, families of response curves were analyzed according to an allosteric operational model[50],[51]: Y=EM[τAA(KB+αβB)+τBBKA]/[τAA(KB+αβB)+τBBKA+AKB+KAKB+KAB+αAB] where EM is the maximal response; A is the concentration of ACh; B is the concentration of the allosteric ligand; τA and τB represent the operational efficacies of A and B, respectively; KA and KB are the equilibrium dissociation constants of A and B; and α and β represent the cooperativities between A and B in terms of binding and activation, respectively. Curve-fitting was carried out with GraphPad Prism, version 5.0 or 6.0 (San Diego CA).

[4] = tested on: wild-type (AB) zebrafish (Danio rerio); experiment: animal or person; type: in vivo; settings: for Distance moved / Variance turn angle: compound at 10 µM relative to controls, mean ± s.e.m., N = 12; for MEC: locomotor behaviors
Protocol: as §1
The movement of larval zebrafish was monitored with the Noldus behavior recording system (Noldus Information Technology, Leesburg VA) and quantified using EthoVision® XT 15 software (Noldus Information Technology, Leesburg VA). Five-dpf zebrafish larvae were exposed to a range of nonlethal concentrations of compounds in a 24-well plate with appropriate controls. The plate was immediately placed in the incubator for a 30-min exposure period. After 30 min, the plate was transferred to the Noldus system and swimming behavior was recorded in 100% light for 30 min to measure spontaneous swimming behavior. The light was switched off for 10 min (dark period) and then switched on for 10 min (light period), which was then repeated for two additional cycles. In total, the larvae were exposed to three cycles of alternating 10 min dark and light periods (100% darkness-to-100% light). Each drug challenge was conducted on three separate plates with n = 6 larvae/dose/plate.
Absolute turn angle (TA) and angular velocity provided measures of the extent of turning behavior, while the intra-individual variance of turn angle quantified how consistently (low variance) or inconsistently (high variance) fish turned. A lowered intra-individual variance of turning reflected repeatedly performing the same turning behavior, a stereotypy.
All data for exposure and the behavioral end points were analyzed by one-way ANOVA (factor: drug concentration) followed by a Dunnett’s multiple comparisons test for post hoc significance between drug concentration and control group. Statistically significant differences are noted as follows; *p < 0.05; **p < 0.01; ***p < 0.001.

Structure (SMILES) | MTC (maximum tolerated concentration) [1] | Angular velocity [2] | 0.1 µM ACh: response with modulator present divided by response to ACh alone [3] | 100 µM ACh: response with modulator present divided by response to ACh alone [3] | No ACh: agonist effect of the allosteric ligand by itself, fraction of the maximal response that could be elicited by ACh [3] | Effect on M1 receptor activity and ACh response, in words [3] | Therap. index [4] | Distance moved [4] | Variance turn angle [4] | MEC [4]
CCN(CC)CCOc1c(Br)cc(CN2C(=O)C(=O)c3ccccc32)cc1Br.Cl [Compound 8l, 1-(3,5-dibromo-4-(2-(diethylamino)ethoxy)benzyl)indoline-2,3-dione hydrochloride] | 10 µM | 184.7 ± 17.0 % | 0.10 ± 0.07 | 0.86 ± 0.04 | 0.05 ± 0.01 | only decreased ACh activity; also recorded: decreased ACh potency with little impact on ACh efficacy | 1 | 33.5 ± 4.4** % | 166.1 ± 12.5*** % | 10 µM
CCCCc1oc2ccccc2c1C(=O)c1ccc(OCCN(CC)CC)cc1 [Compound 6c, (2-butylbenzofuran-3-yl)(4-(2-(diethylamino)ethoxy)phenyl)methanone] | 3 µM | 129.9 ± 20.1% | 0.40 ± 0.11 | 1.04 ± 0.05 | 0.04 ± 0.01 | decreased ACh activity | 30 | 59.8 ± 8.8% | 136.4 ± 11.8% | 0.1 µM
CCCCc1oc2ccccc2c1C(=O)c1cc(I)c(OC)c(I)c1 [Compound 6b, (2-butylbenzofuran-3-yl)(3,5-diiodo-4-methoxyphenyl)methanone] | 30 µM | 132.3 ± 16.9% | 1.78 ± 0.12 | 1.36 ± 0.07 | 0.08 ± 0.02 | increased ACh activity |  | 75.3 ± 8.5* % | 133.7 ± 14.0* % | > 30 µM
CCCCc1oc2ccc(NS(C)(=O)=O)cc2c1C(=O)c1ccc(OCCCN(CCCC)CCCC)cc1 [Dronedarone, reference compound] | 10 µM | 172.8 ± 25.7 % | 0.25 ± 0.05 | 0.75 ± 0.07 | 0.08 ± 0.01 |  | 1 | 28.3 ± 5.3*** % | 141.6 ± 12.5*** % | 10 µM
COc1ccc(CN2C(=O)C(=O)c3ccccc32)cc1Br [Compound 8d, 1-(3-bromo-4-methoxybenzyl)indoline-2,3-dione] | 100 µM | 201.4 ± 27.5 % | 1.57 ± 0.06 | 0.90 ± 0.03 | 0.04 ± 0.01 |  | 100 | 38.4 ± 4.5*** % | 170.2 ± 15.1*** % | 1 µM
O=C1C(=O)N(Cc2cc(F)c(F)c(F)c2)c2ccccc21 [Compound 8i, 1-(3,4,5-trifluorobenzyl)indoline-2,3-dione] | 10 µM | 412.1 ± 28.7 % | 1.47 ± 0.12 | 1.04 ± 0.02 | 0.06 ± 0.01 |  | 10 | 11.6 ± 1.2*** % | 146.1 ± 16.1** % | 1 µM
COc1ccc(CN2C(=O)C(=O)c3ccccc32)cc1I [Compound 8b, 1-(3-iodo-4-methoxybenzyl)indoline-2,3-dione] | 10 µM | 175.3 ± 19.0 % | 2.13 ± 0.08 | 1.24 ± 0.01 | 0.08 ± 0.01 |  | 10 | 52.7 ± 6.6*** % | 143.0 ± 13.5** % | 1 µM

— article PMC11213934, “Allosteric modulators of M1 muscarinic receptors enhance acetylcholine efficacy and decrease locomotor activity and turning behaviors in zebrafish” (Scientific Reports, 2024)
